Laboratory results from patent publication US8445240B2, “Termite enzymes and uses thereof for in vitro conversion of lignin-containing materials to fermentable products” (University of Florida Research Foundation, Inc., priority 2009, dated 2013).
Where two headings read alike, the source gives them in different places.

Tests used:
[1] = target: T1, recombinant RfBGluc-1 β-glucosidase (Reticulitermes flavipes, UniProt D9ILU1); assay: Activity of recombinant RfBGluc-1 towards natural substrates, endpoint glucose detection assay; type: biochemical
T1 sequence (D9ILU1 18-495): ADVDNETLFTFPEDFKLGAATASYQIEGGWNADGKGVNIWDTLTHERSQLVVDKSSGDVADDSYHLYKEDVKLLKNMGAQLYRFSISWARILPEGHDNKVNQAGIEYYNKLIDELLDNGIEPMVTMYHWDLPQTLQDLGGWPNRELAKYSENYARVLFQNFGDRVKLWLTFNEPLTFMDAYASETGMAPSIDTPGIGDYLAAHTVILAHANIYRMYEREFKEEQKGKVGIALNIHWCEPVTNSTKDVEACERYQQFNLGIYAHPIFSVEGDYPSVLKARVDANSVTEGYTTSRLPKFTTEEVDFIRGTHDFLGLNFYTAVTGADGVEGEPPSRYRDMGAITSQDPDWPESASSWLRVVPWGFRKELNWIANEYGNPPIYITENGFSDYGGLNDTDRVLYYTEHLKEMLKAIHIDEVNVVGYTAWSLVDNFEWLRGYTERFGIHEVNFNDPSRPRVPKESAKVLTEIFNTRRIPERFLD
Protocol: Natural carbohydrate substrates (Table 2) were tested in endpoint assays in which color development was enabled using 439-90901 glucose-mutarose detection reagent (Wako Chemical; Richmond, Va.). Assays were conducted in 125 μL for 5 min at room temperature as described above and stopped with the addition of 125 μL glucose detection reagent. After 1 min, the absorbance was read at 505 nm.

[2] = target: T1, recombinant RfBGluc-1 β-glucosidase; assay: Activity of recombinant RfBGluc-1 towards synthetic nitrophenol substrates, kinetic microplate assay; type: biochemical; settings: percent activity rankings based on Vmax; pNP-βD-Glucopyranoside = 100
Protocol: All initial characterization assays took place in 0.1 M sodium acetate buffer (pH 6) using 2 μL of recombinant enzyme preparation (=1.58 μg protein per assay) in a total reaction volume of 250 μL. Synthetic p-nitrophenol substrates (Table 1) were tested in direct kinetic assays using a microplate reader. Reactions were initiated by adding 248 μL assay buffer to 2 μL protein. Assays were read at 420 nm every 20 sec for 5 min to yield mean velocity data in mOD/min. Specific activity was determined with the p-nitrophenol extinction coefficient of 0.6605 mM^−1 cm^−1. All results were averaged from three independent replicates, each conducted in triplicate.

Cell-1 = settings: for effect on Cell-1 temperature stability: pre-incubation at 60° C. and 70° C., 0-60 min
Protocol: Thermal stability tests were conducted using 1.5% CMC in 100 mM sodium phosphate at the optimal pH of 7. Temperature-cofactor studies were performed using 1.5% CMC dissolved in 100 mM sodium phosphate (pH 7) alone, plus 4 mM EDTA (final concentration), or plus 10 mM calcium chloride (final concentration). Pre-incubations took place for 0-5 days at 25° C. or 0-60 min at 60° C. or 70° C.; reactions were terminated by the combination of adding stop solution and boiling for 10 min, and then assays were read at 25° C.
Calcium as a cofactor in β-1,4-endoglucanase Cell-1 hydrolytic activity and temperature stability: The effects of calcium on recombinant Cell-1 activity were investigated using calcium chloride as a calcium source and EDTA as a potential calcium chelator.

[3] = Recombinant Cell-3 exoglucanase activity in unpurified form; type: biochemical; settings: for activity toward pNPC relative to uninfected control larvae: homogenates of infected larvae
Source text: Recombinant Cell-3 characterization: The recombinant Cell-3 protein (nucleotide sequence SEQ ID NO.: 3; amino acid sequence SEQ ID NO.: 4) was investigated in unpurified form. […] Other experiments investigating activity in crude homogenates over time and after repeated freeze-thaw cycles further verified reduced Cell-3 stability.

[4] = Characterisation of recombinant RfLacA and RfLacB isoforms; type: biochemical
[5] = Glucose release from pine sawdust by recombinant enzymes and mixtures; type: biochemical; settings: 2% w/v, 18 hrs, 37° C., pH 7
Protocol: All reactions were performed in 0.1 M sodium acetate buffer containing 10 mM calcium chloride (pH 7). The two feedstock substrates were pine sawdust (=lignin+cellulose+hemicellulose) and beechwood xylan (=lignin+hemicellulose). Feedstocks were tested at 2% w/v (10 mg in 0.5 mL buffer). Reactions were run for 18 hrs at 37° C. with shaking at 220 rpm in vented 1.5 mL plastic tubes.
Protein volumes used per assay were 10 μL of each of the Cell-1, β-glucosidase, and Laccase 6 recombinant protein preparations. These loading volumes provided 8.5, 7.9 and 2.0 μg of each protein, respectively, per reaction. The storage buffer for Cell-1 and β-glucosidase was 0.1 M sodium acetate, 0.15 M sodium chloride, and 0.5 M calcium chloride (pH 5.8). The storage buffer for Laccase 6 was 0.1M boric acid, phosphoric acid, and acetic acid (pH 7.0).
Reactions were stopped after 18 hours by the addition of 10 μL of 0.2 Methylene-diamine tetra-acetic acid and centrifuged for 5 min at 16,000×g. Glucose detection was performed in triplicate on 125 μL aliquots of each reaction supernatant. The entire experiment was replicated three times. Glucose release was measured using the Autokit Glucose reagent kit (Wako Chemical, Richmond, Va.) at a volume of 125 μL per determination. Glucose was quantified based on absorbance at 505 nm relative to glucose standard curves. Standard curves were prepared in eight serial dilutions downward from 0.6 mM in sodium acetate-calcium chloride reaction buffer.

For `OC[C@H]1O[C@@](CO)(O[C@H]2O[C@H](CO)[C@@H](O)[C@H](O)[C@H]2O)[C@@H](O)[C@@H]1O` [Sucrose], the “Activity (%)” value [1] was 0%.

For Cellobiose, the “Activity (%)” value ([1]; percent activity rankings based on Vmax, cellobiose = 100) was 100%.

For `OCc1ccccc1O[C@@H]1O[C@H](CO)[C@@H](O)[C@H](O)[C@H]1O` [Salicin], the “Activity (%)” value [1] was 44%.

In the case of `OC[C@H]1O[C@@H](O[C@H]2[C@H](O)[C@@H](CO)OC(O)[C@@H]2O)[C@H](O)[C@@H](O)[C@@H]1O` (stereo partly shown) [Laminaribose], the “Activity (%)” value [1] is reported as 34%.

With `C[C@H]1O[C@@H](Oc2ccc([N+](=O)[O-])cc2)[C@H](O)[C@@H](O)[C@H]1O` [pNP-βD-Fucopyranoside] the “Activity (%)” value [2] was 55%.

For `O=[N+]([O-])c1ccc(O[C@@H]2O[C@H](CO)[C@@H](O)[C@H](O)[C@H]2O)cc1` [pNP-βD-Glucopyranoside, p-nitrophenyl-beta-D-glucopyranoside], the “Activity (%)” value [2] was 100%.

In the case of `[Ca+2].[Cl-].[Cl-]` [calcium chloride], the “effect on Cell-1 CMC endoglucanase activity” value (Cell-1; incubations over a 5-day period at about 25° C.) is reported as “slightly enhanced”, the “effect on Cell-1 temperature stability” value (Cell-1) is reported as “stabilized/extended CMC hydrolysis activity over time” and the “effect on Cell-1 temperature stability” value (Cell-1; listed as calcium) is reported as “improves Cell-1 temperature stability”.

In the case of `O=[N+]([O-])c1ccc(O[C@@H]2O[C@H](CO)[C@@H](O[C@@H]3O[C@H](CO)[C@@H](O)[C@H](O)[C@H]3O)[C@H](O)[C@H]2O)cc1` [pNP-βD-Cellobioside, p-nitrophenyl-beta-D-cellobioside], the “Activity (%)” value [2] is reported as 60%.

B1: Cell-3: recombinant exoglucanase, amino acid sequence SEQ ID NO.: 4, investigated in unpurified form (protein)
chain: MVLCILLQWMQIGGKQKYPAFKPGAKYGRGYCDGQCPHDMKVSSGRANVDGWKPQDNDENSGNGKLGTCCWEMDIWEGNLVSQAYTVHAGSKSGQYECTGTQCGDTDSGERFKGTCDKDGCDFASYRWGATDYYGPGKTVDTKQPMTVVTQFIGDPLTEIKRVYVQGGKVINNSKTSNLGSVYDSLTEAFCDDTKQVTGDTNDFKAKGGMSGFSKNLDTPQVLVMSLWDDHTANMLWLDSTYPTDSTKPGAARGTCAVTSGDPKDVESKQANSQVVYSDIKFGPINSTYKAN
modifications: Reticulitermes flavipes; amino acid sequence exoglucanase (Cell-3)
In the case of B1, the “activity toward pNPC relative to uninfected control larvae” value [3] is reported as “significantly higher activity”, the “activity toward pNPC relative to uninfected control larvae” value ([3]; listed as recombinant Cell-3) is reported as “higher exoglucanase (cellulase) activity than do uninfected homogenates” and the “stability of recombinant protein” value ([3]; pNPC activity in filtrates, over time and after freeze-thaw cycles) is reported as “reduced stability”.

B2: RfLacB: recombinant R. flavipes gut laccase isoform 2, clone Lac12, SEQ ID NO.: 12 (protein)
chain: VYRSDAYIMLPCVLLACAIGVASATSVLLNSYLQPNDDIDRNTYLLNAKSNNCARICNGTEAPKICYYQWTIENYVTLSEACDNCPLNVTACYNAQCITADGYERSILSVNRKLPGPSIEVCLRDRVIVDITNNMAGRTTSIHWHGVFQKGSQYMDGVPMVTQCTIHEGDTLRYDFIANNEGTHFWHSHDGLQKLDGVTGNLVVRVPKNFDPNGQLYDFDLPEHKIFISDWLHLSADDHFPGLRATNPGQDANSFLINGRGRTLIGTQSTNTPYAQINVQWGRRYRLRIVGSLCTVCPTQLTIDGHKITVIATDGNSVAPARVDSLIIYSGERYDVVLEATNTEGSYWIHLKGLVTCVGSRVYQLGVLQYENTTTNKLHALTPDPGYDGFPQPASYRVLNPENASCSIGSTGLCVTQLANSDPVPRDILTQLPDINYLLQFGFKIFDSRSFFKAYDRYFVSPFLDLVSSTVNNISSVSPPSPLLSQRGDVPDDVLCPTGADGLPQCPGGNSYCTCVHVIKIKLGALVQIILSDQTPKSGLNHPFHLHGHAFYVLGMGQYAAGQTAQDLLNSLKSNVSSVSPAPVLKDTIAVPSGGYAIIKFRPKNPGYWFLHCHFLYHVATGMSVVLQVGETSDYPPTPDGFPKCGSFTPPVNTN
modifications: Reticulitermes flavipes; amino acid sequence Laccase Lacc-12
For B2, the “Results of RfLacB isoform compared with RfLacA against all substrates” value [4] was “statistically indistinguishable results to RfLacA” and the “oxidation of ABTS and syringaldazine” value [4] was “unable to oxidize”.

B3: β-glucosidase: recombinant R. flavipes β-glucosidase, amino acid sequence SEQ ID NO.: 6 (protein)
chain: MRLQTVCFVIFVTAVFGADVDNETLFTFPEDFKLGAATASYQIEGGWNADGKGVNIWDKLTHERSQLVVDKSSGDVADDSYHLYKEDVKLLKNMGAQLYRFSISWARILPEGHDNKVNQAGIEYYNKLIDELLDNGIEPMVTMYHWDLPQTLQDLGGWPNRELAKYSENYARVLFQNFGDRVKLWLTFNEPLTFMDAYASETGMAPSIDTPGIGDYLAAHTVILAHANIYRMYEREFKEEQKGKVGIALNIHWCEPVTNSTKDVEACERYQQFNLGIYAHPIFSVEGDYPSVLKARVDANSVTEGYTTSRLPKFTTEEVDFIRGTHDFLGLNFYTAVTGADGVEGEPPSRYRDMGAITSQDPDWPQSASSWLRVVPWGFRKELNWIANEYGNPPIYITENGFSDYGGLNDTDRVLYYTEHLKEMLKANHIDEVNVVGYTTWRPVDNFEWLRGYTERFGIHEVNFNDPSRPRVPKESAKVLTEIFNTRRIPERFLD
modifications: Reticulitermes flavipes; amino acid sequence beta-glucosidase “contig 771”
With B3 the “glucose release from pine sawdust (in words)” value [5] was “No glucose release was detectable”.
